In patent US20230312578A1, “6H-INDOLO[2,3-B]QUINOXALINE DERIVATIVES USEFUL IN THERAPY” (Vironova Medical AB, priority 2020, published 2023):
Like-named read-outs stand apart in the source and are kept apart here.

Columns and labels:
Format in all cases: cell-based
HCT-15 = test: Human tumor cell line growth assay (SRB); settings: Homo sapiens; Colon, HCT-15, 48 h
[1] = Human tumor cell line growth assay (SRB); settings: human, HCT-15 cells (colon), HCT-15, 48 h
OVCAR-4 = test: Human tumor cell line growth assay (SRB); settings: Homo sapiens; Ovarian, OVCAR-4, 48 h
CAKI-1 = test: Human tumor cell line growth assay (SRB); settings: Renal, CAKI-1, 48 h; for CC50: read-out: LC50 (the source's name)
UACC-62 = test: Human tumor cell line growth assay (SRB); settings: Homo sapiens; Melanoma, UACC-62, 48 h
[2] = Human tumor cell line growth assay (SRB); settings: human, UACC-62 cells (melanoma), UACC-62, 48 h, read-out: LC50
SK-MEL-5 = test: Human tumor cell line growth assay (SRB); settings: Homo sapiens; Melanoma, SK-MEL-5, 48 h
[3] = Human tumor cell line growth assay (SRB); settings: human, SK-MEL-5 cells (melanoma), SK-MEL-5, 48 h
NCI-H322M = test: Human tumor cell line growth assay (SRB); settings: Homo sapiens, NSCLC, 48 h
[4] = Human tumor cell line growth assay (SRB); settings: human, NCI-H322M cells (NSCLC), read-out: LC50
Human tumor cell lines = test: Human tumor cell line growth assay (SRB), summary over the panel; settings: overall over the panel
MDA-MB-231/ATCC = test: Human tumor cell line growth assay (SRB); settings: Breast, 48 h
HT29 = test: Human tumor cell line growth assay (SRB); settings: Homo sapiens, HT-29; Colon, HT29, 48 h
[5] = Human tumor cell line growth assay (SRB); settings: human, HT29 cells (colon), HT29, 48 h, read-out: LC50
SN12C = test: Human tumor cell line growth assay (SRB); settings: Renal, 48 h; for CC50: read-out: LC50 (the source's name)
ACHN = test: Human tumor cell line growth assay (SRB); settings: Renal, 48 h
T-47D = test: Human tumor cell line growth assay (SRB); settings: T47D, Breast, 48 h
MDA-MB-468 = test: Human tumor cell line growth assay (SRB); settings: Breast, MDA-MB-468, 48 h; for CC50: read-out: LC50 (the source's name)
MDA-MB-435 = test: Human tumor cell line growth assay (SRB); settings: Homo sapiens; Melanoma, MDA-MB-435, 48 h
M14 = test: Human tumor cell line growth assay (SRB); settings: Homo sapiens; Melanoma, M14, 48 h
[6] = Human tumor cell line growth assay (SRB); settings: human, M14 cells (melanoma), M14, 48 h, read-out: LC50
NCI-H226 = test: Human tumor cell line growth assay (SRB); settings: Homo sapiens; NSCLC, NCI-H226, 48 h
[7] = Human tumor cell line growth assay (SRB); settings: human, NCI-H226 cells (NSCLC), NCI-H226, 48 h, read-out: LC50
COLO 205 = test: Human tumor cell line growth assay (SRB); settings: Homo sapiens; Colon, COLO 205, 48 h
[8] = Human tumor cell line growth assay (SRB); settings: human, COLO 205 cells (colon), COLO 205, 48 h, read-out: LC50
HCT-116 = test: Human tumor cell line growth assay (SRB); settings: Homo sapiens; Colon, HCT-116, 48 h
PC-3 = test: Human tumor cell line growth assay (SRB); settings: Prostate, PC-3, 48 h
MOLT-4 = test: Human tumor cell line growth assay (SRB); settings: Homo sapiens; Leukemia, MOLT-4, 48 h
[9] = Human tumor cell line growth assay (SRB); settings: human, MOLT-4 cells (leukemia), MOLT-4, 48 h, read-out: LC50
SK-MEL-2 = test: Human tumor cell line growth assay (SRB); settings: Homo sapiens; Melanoma, SK-MEL-2, 48 h
SNB-75 = test: Human tumor cell line growth assay (SRB); settings: Homo sapiens; CNS, SNB-75, 48 h
[10] = Human tumor cell line growth assay (SRB); settings: human, SNB-75 cells (CNS), SNB-75, 48 h
[11] = Human tumor cell line growth assay (SRB); settings: human, OVCAR-4 cells (ovarian), OVCAR-4, 48 h, read-out: LC50
[12] = Human tumor cell line growth assay (SRB); settings: human, MDA-MB-435 cells (melanoma), MDA-MB-435, 48 h, read-out: LC50
[13] = Human tumor cell line growth assay (SRB); settings: human, HCT-116 cells (colon), HCT-116, 48 h, read-out: LC50
[14] = Human tumor cell line growth assay (SRB); settings: human, SK-MEL-2 cells (melanoma), SK-MEL-2, 48 h, read-out: LC50
[15] = Human tumor cell line growth assay (SRB); settings: human, HCC-2998 cells (colon), HCC-2998, 48 h, read-out: LC50
[16] = read-out: LC50 (the source's name)

SMILES: Cc1cc2nc3c4cc(O)ccc4n(CCN(C)C)c3nc2cc1C [JBD-139, 6-(2-(dimethylamino)ethyl)-2,3-dimethyl-6H-indolo [2,3-b]quinoxalin-9-ol]
- GI50 (HCT-15): 405 nM
- LC50 (concentration killing 50% of cells) at 48 h [1]: > 100 µM
- GI50 (OVCAR-4): 882 nM
- GI50 (CAKI-1): 259 nM
- CC50 (CAKI-1): 5.31 µM
- GI50 (UACC-62): 479 nM
- CC50 at 48 h [2]: 6.37 µM
- GI50 (SK-MEL-5): 1450 nM
- LC50 (concentration killing 50% of tumour cells) at 48 h [3]: 5.33 µM
- GI50 (NCI-H322M): 516 nM
- CC50 at 48 h [4]: > 100 µM
- cytotoxicity, comparison in words (Human tumor cell lines): cytotoxicity that is higher
- GI50 (MDA-MB-231/ATCC): 544 nM
- GI50 (HT29): 379 nM
- CC50 at 48 h [5]: > 100 µM
- GI50 (SN12C): 397 nM
- CC50 (SN12C): > 100 µM
- GI50 (ACHN): 307 nM
- GI50 (T-47D): 686 nM
- GI50 (MDA-MB-468): 518 nM
- CC50 (MDA-MB-468): > 100 µM
- GI50 (MDA-MB-435): 529 nM
- GI50 (M14): 378 nM
- CC50 at 48 h [6]: 5.15 µM
- GI50 (NCI-H226): 1340 nM
- CC50 at 48 h [7]: 19.5 µM
- GI50 (COLO 205): 470 nM
- CC50 at 48 h [8]: > 100 µM
- GI50 (HCT-116): 326 nM
- GI50 (PC-3): 491 nM
- GI50 (MOLT-4): 359 nM
- CC50 at 48 h [9]: > 100 µM
- GI50 (SK-MEL-2): 1100 nM
- GI50 (SNB-75): 214 nM
- LC50 (concentration killing 50% of cells) at 48 h [10]: > 100 µM

SMILES: Cc1cc2nc3c4cc(N)ccc4n(CCN(C)C)c3nc2cc1C [JBD-136, 6-(2-(dimethylamino)ethyl)-2,3-dimethyl-6H-indolo [2,3-b]quinoxalin-9-amine]
- GI50 (HCT-15): 528 nM
- LC50 (concentration killing 50% of cells) at 48 h [1]: > 100 µM
- GI50 (OVCAR-4): 1700 nM
- CC50 at 48 h [11]: 59 µM
- GI50 (CAKI-1): 427 nM
- CC50 (CAKI-1): 85.5 µM
- GI50 (UACC-62): 1180 nM
- CC50 at 48 h [2]: 7.99 µM
- GI50 (SK-MEL-5): 1690 nM
- LC50 (concentration killing 50% of tumour cells) at 48 h [3]: 5.72 µM
- GI50 (NCI-H322M): 771 nM
- CC50 at 48 h [4]: > 100 µM
- growth inhibition (GI50), comparison in words (Human tumor cell lines): slightly improved growth inhibition and cytotoxicity compared to B220
- GI50 (MDA-MB-231/ATCC): 1220 nM
- CC50 (MDA-MB-231/ATCC; [16]): 57.5 µM
- GI50 (HT29): 430 nM
- CC50 at 48 h [5]: > 100 µM
- GI50 (SN12C): 553 nM
- CC50 (SN12C): > 100 µM
- GI50 (ACHN): 367 nM
- CC50 (ACHN; [16]): 57.3 µM
- GI50 (T-47D): 2260 nM
- CC50 (T-47D; [16]): > 100 µM
- GI50 (MDA-MB-468): 1030 nM
- CC50 (MDA-MB-468): 8.28 µM
- GI50 (MDA-MB-435): 1050 nM
- CC50 at 48 h [12]: 5.6 µM
- GI50 (M14): 1120 nM
- CC50 at 48 h [6]: 6.43 µM
- GI50 (NCI-H226): 1320 nM
- CC50 at 48 h [7]: > 100 µM
- GI50 (COLO 205): 418 nM
- CC50 at 48 h [8]: 83.6 µM
- GI50 (HCT-116): 369 nM
- CC50 at 48 h [13]: 51.4 µM
- GI50 (PC-3): 1280 nM
- CC50 (PC-3; [16]): 51.9 µM
- GI50 (MOLT-4): 366 nM
- CC50 at 48 h [9]: 71.9 µM
- GI50 (SK-MEL-2): 1630 nM
- CC50 at 48 h [14]: 66.7 µM
- CC50 at 48 h [15]: 21.9 µM
- GI50 (SNB-75): 1250 nM
- LC50 (concentration killing 50% of cells) at 48 h [10]: 24.8 µM
